What was measured:
Assay in all cases: TMT LC-MSMS of 11-labelled proteins
Assay type in all cases: cell-based
[1] = molecular target: puromycin-sensitive aminopeptidase (NPEPPS) (Homo sapiens, UniProt P55786)
[2] = molecular target: T1, dehydrogenase/reductase SDR family member 2, mitochondrial (DHRS2) (Homo sapiens, UniProt Q13268)
T1 sequence (Q13268 24-280): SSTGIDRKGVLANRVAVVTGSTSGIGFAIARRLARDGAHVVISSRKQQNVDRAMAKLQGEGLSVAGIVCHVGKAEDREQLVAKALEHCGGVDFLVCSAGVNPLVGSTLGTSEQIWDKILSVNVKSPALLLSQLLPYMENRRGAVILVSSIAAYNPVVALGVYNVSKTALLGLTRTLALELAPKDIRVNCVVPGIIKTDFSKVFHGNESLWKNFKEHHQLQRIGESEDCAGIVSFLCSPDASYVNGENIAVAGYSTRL

[3] = molecular target: T2, Aldehyde dehydrogenase family 1 member A3 (ALDH1A3) (Homo sapiens, UniProt P47895)
T2 sequence (P47895 1-512): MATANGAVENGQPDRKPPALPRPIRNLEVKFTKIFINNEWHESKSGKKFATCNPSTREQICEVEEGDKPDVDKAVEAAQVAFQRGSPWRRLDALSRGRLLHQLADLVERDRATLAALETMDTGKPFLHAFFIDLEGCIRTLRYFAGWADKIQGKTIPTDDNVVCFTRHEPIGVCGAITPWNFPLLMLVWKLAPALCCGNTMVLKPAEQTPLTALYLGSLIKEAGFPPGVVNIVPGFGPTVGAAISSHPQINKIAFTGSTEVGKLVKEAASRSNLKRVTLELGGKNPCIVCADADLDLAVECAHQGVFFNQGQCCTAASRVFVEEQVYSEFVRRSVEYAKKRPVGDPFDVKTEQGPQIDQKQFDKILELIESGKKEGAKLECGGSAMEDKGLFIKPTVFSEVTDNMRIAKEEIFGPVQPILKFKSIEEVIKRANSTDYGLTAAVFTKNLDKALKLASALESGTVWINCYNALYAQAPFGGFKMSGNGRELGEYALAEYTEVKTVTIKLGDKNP

[4] = sheet Exp1, SKBR3 cells, 11 0.5 µM 3 h vs DMSO
[5] = sheet Exp1, SKBR3 cells, 11 0.5 µM 3 h vs with PU-H71 10 µM
[6] = sheet Merged, SKBR3 cells, 11 0.5 µM 3 h vs DMSO
[7] = sheet Merged, SKBR3 cells, 11 0.5 µM 3 h vs with PU-H71 10 µM

Chain of puromycin-sensitive aminopeptidase (NPEPPS) (P55786 whole entry): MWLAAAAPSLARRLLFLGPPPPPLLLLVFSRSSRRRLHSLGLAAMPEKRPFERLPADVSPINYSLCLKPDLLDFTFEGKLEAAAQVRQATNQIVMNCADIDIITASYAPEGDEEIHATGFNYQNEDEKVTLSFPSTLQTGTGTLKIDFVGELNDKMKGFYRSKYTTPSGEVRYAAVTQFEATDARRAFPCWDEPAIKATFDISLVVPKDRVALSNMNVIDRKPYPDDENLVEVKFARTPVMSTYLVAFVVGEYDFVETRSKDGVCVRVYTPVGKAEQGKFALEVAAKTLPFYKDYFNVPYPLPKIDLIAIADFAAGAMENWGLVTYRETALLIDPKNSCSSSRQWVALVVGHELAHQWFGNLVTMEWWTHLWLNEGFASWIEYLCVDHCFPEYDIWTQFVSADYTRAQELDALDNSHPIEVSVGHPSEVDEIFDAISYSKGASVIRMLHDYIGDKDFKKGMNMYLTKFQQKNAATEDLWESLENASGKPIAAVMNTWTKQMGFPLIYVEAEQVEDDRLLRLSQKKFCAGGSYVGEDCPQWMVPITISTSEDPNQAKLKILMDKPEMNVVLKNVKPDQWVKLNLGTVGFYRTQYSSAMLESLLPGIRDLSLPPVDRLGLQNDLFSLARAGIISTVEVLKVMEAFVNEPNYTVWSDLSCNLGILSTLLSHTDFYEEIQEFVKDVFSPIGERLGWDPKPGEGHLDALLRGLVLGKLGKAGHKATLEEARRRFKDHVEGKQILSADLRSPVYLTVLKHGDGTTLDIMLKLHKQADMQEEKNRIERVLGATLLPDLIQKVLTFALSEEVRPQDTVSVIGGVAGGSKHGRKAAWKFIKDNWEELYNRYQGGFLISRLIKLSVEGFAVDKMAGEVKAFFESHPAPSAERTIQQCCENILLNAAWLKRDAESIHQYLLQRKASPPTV

With `CC(=O)Oc1ccc2c(c1)Oc1cc(OC(C)=O)ccc1C21OC(=O)c2cc(C(=O)NCCOCCOCCNC(=O)CCCC(=O)N(CC#N)S(=O)(=O)c3ccc(C(=O)NCCCn4c(Sc5cc6c(cc5I)OCO6)nc5c(N)ncnc54)cc3)ccc21` [compound 11] the “Abundance Ratio: (11) / (11 with PU-H71)” value ([1]; Exp3, NPEPPS) was 0.586, the “Abundance Ratio: (11) / (DMSO)” value ([1]; Exp3, NPEPPS) was 3.067 and the “Abundances (Grouped): 11” value ([1]; Exp3, NPEPPS) was 616.5. For the same compound, the “Abundances (Grouped): 11 with PU-H71” value ([1]; Exp3, NPEPPS) was 1052.4, the “Abundance Ratio: (11) / (DMSO)” value [1, 4] was 3.569 and the “Abundance Ratio: (11) / (11 with PU-H71)” value [1, 5] was 0.575. The “Abundance Ratio: (11) / (11 with PU-H71)” value ([1]; sheet Exp2, NPEPPS) was 0.592, the “Abundance Ratio: (11) / (DMSO)” value ([1]; sheet Exp2, NPEPPS) was 3.192 and the “Abundances (Grouped): 11” value ([1]; sheet Exp2, NPEPPS) was 968.9. The “Abundances (Grouped): 11 with PU-H71” value ([1]; sheet Exp2, NPEPPS) was 1636.1, the “Abundance Ratio: (11) / (DMSO)” value [1, 6] was 3.569 and the “Abundance Ratio: (11) / (11 with PU-H71)” value [1, 7] was 0.575. For the same compound, the “Abundance Ratio: (11) / (11 with PU-H71)” value ([2]; Exp3, DHRS2) was 0.644, the “Abundance Ratio: (11) / (DMSO)” value ([2]; Exp3, DHRS2) was 2.859 and the “Abundances (Grouped): 11” value ([2]; Exp3, DHRS2) was 223.6. The “Abundances (Grouped): 11 with PU-H71” value ([2]; Exp3, DHRS2) was 347.1, the “Abundance Ratio: (11) / (DMSO)” value [2, 4] was 3.162 and the “Abundance Ratio: (11) / (11 with PU-H71)” value [2, 5] was 0.783. The “Abundance Ratio: (11) / (11 with PU-H71)” value ([2]; sheet Exp2, DHRS2) was 0.6, the “Abundance Ratio: (11) / (DMSO)” value ([2]; sheet Exp2, DHRS2) was 3.132 and the “Abundances (Grouped): 11” value ([2]; sheet Exp2, DHRS2) was 156.3. The “Abundances (Grouped): 11 with PU-H71” value ([2]; sheet Exp2, DHRS2) was 260.6, the “Abundance Ratio: (11) / (DMSO)” value [2, 6] was 2.859 and the “Abundance Ratio: (11) / (11 with PU-H71)” value [2, 7] was 0.644. The “Abundance Ratio: (11) / (11 with PU-H71)” value ([3]; Exp3, ALDH1A3) was 0.892, the “Abundance Ratio: (11) / (DMSO)” value ([3]; Exp3, ALDH1A3) was 4.34 and the “Abundances (Grouped): 11” value ([3]; Exp3, ALDH1A3) was 42.1. For the same compound, the “Abundances (Grouped): 11 with PU-H71” value ([3]; Exp3, ALDH1A3, with PU-H71) was 47.2, the “Abundance Ratio: (11) / (DMSO)” value [3, 4] was 5.076 and the “Abundance Ratio: (11) / (11 with PU-H71)” value [3, 5] was 0.894. The “Abundance Ratio: (11) / (DMSO)” value [3, 6] was 4.694 and the “Abundance Ratio: (11) / (11 with PU-H71)” value [3, 7] was 0.893.

Source: article PMC5951806, “Rapid labelling and covalent inhibition of intracellular native proteins using ligand-directed N-acyl-N-alkyl sulfonamide” (Nature Communications, 2018)
